From paper PMC7461116, “Synthesis, Anticonvulsant and Antinociceptive Activity of New Hybrid Compounds: Derivatives of 3-(3-Methylthiophen-2-yl)-pyrrolidine-2,5-dione” (International Journal of Molecular Sciences, 2020)
Where a name gives a salt, the structure may show the parent alone. Read-outs that look alike come from different tables or passages of the source.

Key:
[1] = Rotarod test (acute neurotoxicity, NT); settings: mouse, in vivo, mice ip
[2] = tested on: PTZ-induced clonic seizures; test: Subcutaneous pentylenetetrazole (scPTZ) seizure test; type: in vivo; settings: mice, 100 mg/kg
Protocol: Clonic convulsions were induced by the subcutaneous (sc) administration of PTZ at a dose of 100 mg/kg. After PTZ injection, the mice were placed separately and observed during the next 30 min for the occurrence of clonic seizures. Clonic seizures were defined as clonus of the whole body lasting more than 3 s, with an accompanying loss of righting reflex. The latency to first clonus, the number of seizure episodes, and mortality rate were noted and compared with vehicle-treated and drug-treated groups. The absence of clonic convulsions within the observed time period was interpreted as the compound’s ability to protect against PTZ-induced seizures.

[3] = tested on: latency time to pain reaction; test: Hot plate test; type: in vivo; settings: mice, ip, 30 mg/kg
Protocol: The hot plate test was carried out based on the Eddy and Leimbach (1953) method. In this test, the apparatus was equipped with an electrically heated surface with a temperature controller that maintains surface temperature to a set point. Herein, the temperature was set at 55 °C. The animals were treated ip either with the test compounds, or vehicle 30 min before placing the animal on a hot plate apparatus. Latency time to pain reaction, i.e., the time until the animal licked its back paws or jumped was recorded by means of the stopwatch.

[4] = tested on: GABA Transporter (GAT); test: Radioligand binding, [3H]GABA, Cerep; settings: 100 µM, rat cerebral cortex synaptoneurosomal preparations
Protocol: (§1) Binding and functional studies were performed commercially in Cerep Laboratories (Poitiers, France) using testing procedures described elsewhere (Na^+ channel-site 2 [27], L-type Ca^2+ channel, dihydropyridine site, TRPV1 (VR1) (h) (antagonist effect), GABA transporter (GAT)). All experiments were performed in duplicate.

[5] = Hepatotoxicity, PrestoBlue viability assay; type: cell-based, human; settings: human, Hep G2 cells, 1–100 μM, read-out: Hep G2 cell viability
Protocol: (§2) Hepatotoxicity of tested compounds was assessed in PrestoBlue (Thermo Fisher Scientific, Waltham, MA, USA) Experiments on microplate reader (SpectraMax® iD3, Molecular Devices, San Jose, CA, USA) using human hepatocellular carcinoma cells (Hep G2) ATCC® […]. The cells were cultured in standard conditions (37 °C, 5% CO2), in Dulbecco’s Modified Eagle’s Medium-high glucose, (DMEM, Gibco, Thermo Fisher Scientific, Waltham, MA, USA) supplemented with 10% fetal bovine serum (Thermo Fisher Scientific, Waltham, MA, USA), with added 100 IU/mL penicillin (Sigma Aldrich, Steinheim, Germany) and 100 µg/mL streptomycin (Sigma Aldrich). PrestoBlue reagent is a resazurin-based solution that functions as a cell viability indicator. Metabolically active cells are capable of reducing the PrestoBlue reagent, with the colorimetric changes used as an indicator to quantify the viability of cells in culture. This change can be determined by measuring the fluorescence. After 24 h of incubation with the compounds PrestoBlue reagent was added to wells of a microplate. After 20 min of incubation at 37 °C, the fluorescence intensity (EX 530; EM 580 nm) was measured in a plate reader. Viability values were calculated as a percentage of live cells with respect to the control sample (DMSO). The negative control was medium without cells. Astemizole was used as a reference substance.

[6] = tested on: Voltage-Sensitive Na+ Channel (site 2); test: Radioligand binding, [3H]BTX, Cerep; settings: 100 µM, rat cerebral cortex synaptoneurosomal preparations
Protocol: as §1

[7] = tested on: acetic acid-induced writhing behavior; test: Acetic acid-induced writhing test; type: in vivo; settings: mice, ip
Protocol: Mice were injected with the test compound or vehicle by intraperitoneally route (ip), and 30 min later, 0.9 % acetic acid solution was injected ip and the animals were placed into the glass beakers. The writhing response (lengthwise stretching of the torso, concave arching of the back, and extension of the hind limbs) was recorded for 30 min. The analgesic effect of the tested substances was determined by a decrease in the number of writhes observed and the results were expressed as percent inhibition of writhing behavior (as index of analgesia), and was calculated using the following formula: %Inhibition=(NA−NB)/NA×100, where NA—number of writhes in vehicle group, NB—number of writhes in drug-treated group.

[8] = target: T1, TRPV1 receptor (Homo sapiens, UniProt Q8NER1); test: TRPV1 (VR1) (h) antagonist effect, Cerep; type: biochemical; settings: 100 µM
T1 construct: Cerep Laboratories (Poitiers, France)
Protocol: as §1

[9] = tested on: 6 Hz psychomotor seizures; test: 6 Hz (32 mA) psychomotor seizure test; type: in vivo, mice; settings: for ED50 / responders at 100 mg/kg: Mus musculus; for ED50 / PI (TD50/ED50), 6 Hz: mice ip; for ED50: 95% confidence limit in brackets; for responders at 100 mg/kg / 6 Hz: tested animals protected: ip, 0.5 h
Source text: Psychomotor seizures were induced via corneal stimulation (6 Hz, 32 mA, 0.2 ms rectangular pulse width, 3 s duration) using a constant-current device (ECT Unit 57800, Ugo Basile, Italy). A drop of 1% solution of lidocaine hydrochloride was applied to the mouse corneas before stimulation to provide local anesthesia and ensure optimal current conductivity. After the electrical stimulation, mice were gently released and observed for the presence or absence of seizure activity, being characterized by immobility associated with rearing, forelimb clonus, twitching of the vibrissae, stun, and Straub-tail. Lack of the above symptoms or their cessation within 10 s from the stimulation was considered as absence of seizure activity. The initial anticonvulsant screening of the tested compounds was performed at a fixed dose of 100 mg/kg (four mice per group). Then ED50 was calculated for active compounds as described above.

[10] = tested on: maximal electroshock seizures; test: Maximal electroshock seizure (MES) test; type: in vivo, mice; settings: for responders at 100 mg/kg / ED50: Mus musculus; for responders at 100 mg/kg / MES: tested animals protected: ip, 0.5 h; for ED50: mice ip, 95% confidence limit in brackets
Protocol: The MES test was performed as previously described. Stimuli (25 mA, 0.2 s, 50 Hz) were generated by a constant current stimulator (Rodent shocker, Type 221, Hugo Sachs Elektronik, Germany) and delivered with the use of auricular electrodes. During the stimulation, each mouse was restrained manually, and immediately after the stimulation gently released for observation. The endpoint was the tonic extension of the hind limbs. Mice not displaying hindlimb tonic extension were considered to be protected from seizure. The initial anticonvulsant screening of the tested compounds was performed at a fixed dose of 100 mg/kg (four mice per group). […] To evaluate the ED50, at least three groups of animals were injected with various doses of tested compounds. Each group consisted of six animals.

[11] = tested on: Voltage-Sensitive Ca2+ Channel L-type (dihydropyridine site); test: Radioligand binding, [3H]nitrendipine, Cerep; settings: 100 µM, rat cerebral cortex synaptoneurosomal preparations
Protocol: as §1

[12] = tested on: motor impairment on rotarod; test: Rotarod test (acute neurotoxicity, NT); type: in vivo; settings: ip, 100 mg/kg, 0.5 h
Protocol: In this test mice were trained to balance on an accelerating rotarod that rotated at 10 rotations per minute (Rotarod apparatus, May Commat RR0711, Turkey; rod diameter: 3 cm). During the training session, the animals were placed on a rotating rod for 3 min with an unlimited number of trials. Proper experiment was conducted 24 h after the training trial. On the test day, trained mice were intraperitoneally pretreated with the test compound at a dose of 100 mg/kg and just before the MES test were tested on the rotarod. Neurotoxicity was indicated by the inability of the animal to maintain equilibration on the rod for 1 min. […] Each group consisted of six animals.

[13] = tested on: Hep G2 cells; test: Hepatotoxicity, PrestoBlue viability assay; type: cell-based, human; settings: 24 h; for Hepatotoxicity in Hep G2 cells, in words: 1 and 10 μM; for Inhibition of viability of Hep G2 cells: 100 and 50 μM
Protocol: as §2

[14] = tested on: maximal electroshock seizures; settings: cited from earlier work
[15] = tested on: 6 Hz psychomotor seizures; settings: mice ip, reference AEDs, cited from earlier work; for 6 Hz ED50: 32 mA
[16] = mice, 100 mg/kg, 32 mA, read-out: 6 Hz: number of mice protected/number of mice tested (converted)
[17] = mice, 100 mg/kg, read-out: MES: number of mice protected/number of mice tested (converted)
[18] = read-out: 6 Hz: number of mice protected/number of mice tested
[19] = read-out: MES: number of mice protected/number of mice tested

T1 sequence (Q8NER1 whole entry): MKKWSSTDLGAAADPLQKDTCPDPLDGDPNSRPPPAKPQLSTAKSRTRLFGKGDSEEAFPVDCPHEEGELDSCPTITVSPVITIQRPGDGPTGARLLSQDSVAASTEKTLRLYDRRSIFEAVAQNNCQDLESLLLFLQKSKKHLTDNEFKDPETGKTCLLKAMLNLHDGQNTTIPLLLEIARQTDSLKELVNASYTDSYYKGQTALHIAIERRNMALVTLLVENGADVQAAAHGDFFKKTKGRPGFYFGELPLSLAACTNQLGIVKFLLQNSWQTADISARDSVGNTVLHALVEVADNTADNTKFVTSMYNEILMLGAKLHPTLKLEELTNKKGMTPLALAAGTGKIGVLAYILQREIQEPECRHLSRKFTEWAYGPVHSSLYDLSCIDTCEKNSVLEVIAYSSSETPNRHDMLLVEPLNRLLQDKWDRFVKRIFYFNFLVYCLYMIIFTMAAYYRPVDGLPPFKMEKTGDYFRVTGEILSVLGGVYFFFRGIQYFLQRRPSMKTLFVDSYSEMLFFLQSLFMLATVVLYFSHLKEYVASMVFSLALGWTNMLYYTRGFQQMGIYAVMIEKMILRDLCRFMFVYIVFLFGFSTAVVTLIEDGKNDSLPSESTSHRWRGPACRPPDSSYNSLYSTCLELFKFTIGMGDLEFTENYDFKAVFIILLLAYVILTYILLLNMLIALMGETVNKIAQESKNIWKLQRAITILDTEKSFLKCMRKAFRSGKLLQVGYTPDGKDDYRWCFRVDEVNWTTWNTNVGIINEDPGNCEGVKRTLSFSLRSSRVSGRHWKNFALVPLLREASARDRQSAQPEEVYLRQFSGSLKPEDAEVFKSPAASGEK

Row | SMILES | TD50 at 0.5 h [1] | Hot plate: prolongation of latency time to pain reaction [3] | % Inhibition of Control Specific Binding, Voltage-Sensitive Na+ Channel (site 2) [6] | Reduction of number of writhes (inhibition of writhing behavior) ([7]; 30 mg/kg) | TRPV1 antagonist effect [8] | ED50 ([9]; 32 mA) | responders at 100 mg/kg [9, 16] | 6 Hz: tested animals protected ([9]; mice, 100 mg/kg, 32 mA) | responders at 100 mg/kg [10, 17] | % Inhibition of Control Specific Binding, Voltage-Sensitive Ca2+ Channel L-typ [11] | NT: number of mice with motor impairment/number of mice tested [12] | other results
1 | Cc1ccsc1C1CC(=O)N(CCN2CCOCC2)C1=O (racemic) [Compound 3, (R,S)-3-(3-Methylthiophen-2-yl)-1-(2-morpholinoethyl)pyrrolidine-2,5-dione hydrochloride] | > 200 mg/kg | inactive | 15.6% | 34% | 14.8% | 74.3 mg/kg | 100% | 100% | 25% | −1.1% | 0/4 | scPTZ: tested animals protected [2]: 50%; scPTZ: latency time to first seizure episode ([2]; control 436.8 ± 91.94 s): 1435 ± 234.9 s; scPTZ: prolongation of latency time to first seizure episode ([2]; vs control, p < 0.001): 228%; % Inhibition of Control Specific Binding, GABA Transporter (GAT) [4]: −1.1%; viability at 24 h [5]: > 94%; Reduction of number of writhes (inhibition of writhing behavior) ([7]; 45 mg/kg): 39%
2 | Cc1ccsc1C1CC(=O)N(CCCN2CCOCC2)C1=O (racemic) [Compound 4, (R,S)-3-(3-Methylthiophen-2-yl)-1-(3-morpholinopropyl)pyrrolidine-2,5-dione hydrochloride] | < 200 mg/kg | inactive | 42.1% | 29.8% | – | 75.6 mg/kg | – | at least 75% | – | 39.7% | 0/4 | scPTZ: effect in words [2]: no significant effect; % Inhibition of Control Specific Binding, GABA Transporter (GAT) [4]: −3.2%; viability at 24 h [5]: > 94%; responders at 100 mg/kg [9, 18]: 75%; PI (TD50/ED50), 6 Hz [9]: < 2.65; responders at 100 mg/kg [10, 19]: 75%; ED50 [10]: 62.1 mg/kg; MES: tested animals protected ([10]; mice, 100 mg/kg): 75%
3 | Cc1ccsc1C1CC(=O)N(CCCN2CCN(c3cccc(C(F)(F)F)c3)CC2)C1=O (racemic) [Compound 6, (R,S)-3-(3-Methylthiophen-2-yl)-1-(3-(4-(3-(trifluoromethyl)phenyl)piperazin-1-yl)propyl)pyrrolidine-2,5-dione hydrochloride] | < 100 mg/kg | 49% | 96.7% | 27% | 74.8% | 78.3 mg/kg | – | at least 75% | – | 69.9% | 4/4 | Hepatotoxicity in Hep G2 cells, in words [13]: no hepatotoxicity; Inhibition of viability of Hep G2 cells [13]: 13–28%; responders at 100 mg/kg [9, 18]: 75%; PI (TD50/ED50), 6 Hz [9]: < 1.28; responders at 100 mg/kg [10, 19]: 25%
4 | Cc1ccsc1C1CC(=O)N(CCCN2CCN(c3ccc(Cl)c(Cl)c3)CC2)C1=O (racemic) [Compound 9, (R,S)-1-(3-(4-(3,4-Dichlorophenyl)piperazin-1-yl)propyl)-3-(3-methylthiophen-2-yl)pyrrolidine-2,5-dione hydrochloride] | > 300 mg/kg | 43% | 78.8% | 61.44% | 109.5% | > 130 mg/kg | 50% | – | 50% | −9.5% | 0/4 | Hepatotoxicity in Hep G2 cells, in words [13]: no hepatotoxicity; Inhibition of viability of Hep G2 cells [13]: 13–28%; ED50 [10]: > 130 mg/kg; MES: tested animals protected ([10]; mice, 100 mg/kg): 50%
5 | Cc1ccsc1C1CC(=O)N(CC(=O)N2CCN(c3cccc(Cl)c3)CC2)C1=O (racemic) [Compound 14, (R,S)-1-(2-(4-(3-Chlorophenyl)piperazin-1-yl)-2-oxoethyl)-3-(3-methylthiophen-2-yl)pyrrolidine-2,5-dione] | > 300 mg/kg | – | – | – | – | 153 mg/kg | 50% | – | 0% | – | 0/4 | scPTZ: effect in words [2]: no significant effect
6 | CCC1(C)CC(=O)NC1=O (centres unmarked) [ETX, ethosuximide] | – | – | – | – | – | – | – | – | – | – | – | MES: protection in words [14]: did not show protection; MES ED50 ([14]; mice ip, reference AEDs): > 500 mg/kg; 6 Hz ED50 [15]: 221.7 (183.0–268.5) mg/kg; PI (TD50/ED50), 6 Hz [15]: 3.2 (6 Hz)
7 | CCCC(CCC)C(=O)O [VPA, valproic acid] | – | – | – | – | – | – | – | – | – | – | – | PI (TD50/ED50), MES ([14]; mice ip, reference AEDs): 1.7; 6 Hz ED50 [15]: 130.6 (117.6–145.2) mg/kg; PI (TD50/ED50), 6 Hz [15]: 3.3
